According to PubChem BioAssay AID2060498 (Molecular Pharmacology Branch, DTP, NCI, 2025):

System: 171881-019-R-J1-PDC tumor spheroids, viability
Experiment: Anticancer human tumor 171881-019-R-J1-PDC patient-derived invasive breast carcinoma cell line growth inhibition [GQUAD]
Conditions: spheroids with HUVEC and MSC; for IC50: curve of first compound; for viability, T/C: stronger effect = lower value
Method in brief: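 Multi-cell-type spheroids of tumor cells with HUVEC and mesenchymal stem cells, treated with drug combinations. Concentrations descend in half-log steps from near clinical Cmax, or from 10 microM where Cmax is unknown; viability read-out.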

[1] = second compound 0.0316 µM, first compound 0.0316 µM
[2] = second compound 0.0316 µM, first compound 0.316 µM
[3] = second compound 0.1 µM, first compound 0.0316 µM
[4] = second compound 0.1 µM, first compound 0.316 µM
[5] = second compound 0.316 µM, first compound 0.0316 µM
[6] = second compound 0.316 µM, first compound 0.316 µM
[7] = second compound 1 µM, first compound 0.0316 µM
[8] = second compound 1 µM, first compound 0.316 µM
[9] = second compound 3.16 µM, first compound 0.0316 µM
[10] = second compound 3.16 µM, first compound 0.316 µM
[11] = second compound 10 µM, first compound 0.0316 µM
[12] = second compound 10 µM, first compound 0.316 µM
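Further: spheroids exposed to compounds for 7 days.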
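Wherever viability, T/C is given: 100% = DMSO vehicle control viability.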

What does the source list for `C=CC(=O)N1CCN(c2nc(=O)n(-c3c(C)ccnc3C(C)C)c3nc(-c4c(O)cccc4F)c(F)cc23)C(C)C1` (centres undefined) + CN(C)c1ccc(Nc2c3ccc(NC(=O)CCN4CCCC4)cc3nc3cc(NC(=O)CCN4CCCC4)ccc23)cc1?
IC50 (second compound 0.0316 µM): > 10 µM; IC50 (second compound 0.1 µM): > 10 µM; IC50 (second compound 0.316 µM): 7.36 µM; IC50 (second compound 1 µM): < 0.0316 µM; IC50 (second compound 3.16 µM): < 0.0316 µM; IC50 (second compound 10 µM): < 0.0316 µM; viability, T/C [1]: 98.3%; viability, T/C (second compound 0.0316 µM, first compound 0.1 µM): 104%; viability, T/C [2]: 102%; viability, T/C (second compound 0.0316 µM, first compound 1 µM): 117%; viability, T/C (second compound 0.0316 µM, first compound 3.16 µM): 99.3%; viability, T/C (second compound 0.0316 µM, first compound 10 µM): 53.5%; viability, T/C [3]: 94.8%; viability, T/C (second compound 0.1 µM, first compound 0.1 µM): 115%; viability, T/C [4]: 111%; viability, T/C (second compound 0.1 µM, first compound 1 µM): 119%; viability, T/C (second compound 0.1 µM, first compound 3.16 µM): 96.9%; viability, T/C (second compound 0.1 µM, first compound 10 µM): 59.3%; viability, T/C [5]: 79.3%; viability, T/C (second compound 0.316 µM, first compound 0.1 µM): 75.8%; viability, T/C [6]: 69.8%; viability, T/C (second compound 0.316 µM, first compound 1 µM): 70%; viability, T/C (second compound 0.316 µM, first compound 3.16 µM): 70.6%; viability, T/C (second compound 0.316 µM, first compound 10 µM): 42.9%; viability, T/C [7]: 19%; viability, T/C (second compound 1 µM, first compound 0.1 µM): 16%; viability, T/C [8]: 18.6%; viability, T/C (second compound 1 µM, first compound 1 µM): 17.1%; viability, T/C (second compound 1 µM, first compound 3.16 µM): 15.3%; viability, T/C (second compound 1 µM, first compound 10 µM): 10.2%; viability, T/C [9]: 1.61%; viability, T/C (second compound 3.16 µM, first compound 0.1 µM): 1.65%; viability, T/C [10]: 1.29%; viability, T/C (second compound 3.16 µM, first compound 1 µM): 1.13%; viability, T/C (second compound 3.16 µM, first compound 3.16 µM): 2.03%; viability, T/C (second compound 3.16 µM, first compound 10 µM): 1.73%; viability, T/C [11]: 0.27%; viability, T/C (second compound 10 µM, first compound 0.1 µM): 0.5%; viability, T/C [12]: 0.42%; viability, T/C (second compound 10 µM, first compound 1 µM): 0.9%; viability, T/C (second compound 10 µM, first compound 3.16 µM): 0.45%; viability, T/C (second compound 10 µM, first compound 10 µM): 0.56%

Which IC50 (second compound 0.0316 µM) does the source give for `CC[C@@]1(O)C(=O)OCc2c1cc1n(c2=O)Cc2cc3c(CN(C)C)c(O)ccc3nc2-1` + CN(C)c1ccc(Nc2c3ccc(NC(=O)CCN4CCCC4)cc3nc3cc(NC(=O)CCN4CCCC4)ccc23)cc1 here?
Its IC50 is 0.255 µM.

What about the IC50 (second compound 0.1 µM) of the same compound?
The IC50 was 0.251 µM.

What about the IC50 (second compound 0.316 µM) of the same compound?
The IC50 was 0.189 µM.

What about the IC50 (second compound 1 µM) of the same compound?
The IC50 was less than 0.000999 µM.

And the IC50 (second compound 3.16 µM)?
Its IC50 is less than 0.000999 µM.

And the IC50 (second compound 10 µM)?
Its IC50 is less than 0.000999 µM.

And the viability, T/C (second compound 0.0316 µM, first compound 0.000999 µM)?
The viability, T/C was 110%.

And the viability, T/C (second compound 0.0316 µM, first compound 0.00316 µM)?
Its viability, T/C is 108%.

And the viability, T/C (second compound 0.0316 µM, first compound 0.00999 µM)?
The viability, T/C was 105%.

And the viability, T/C [1]?
Its viability, T/C is 99.5%.

What about the viability, T/C (second compound 0.0316 µM, first compound 0.0999 µM) of the same compound?
The viability, T/C was 57.8%.

And the viability, T/C [2]?
Its viability, T/C is 48.3%.

What about the viability, T/C (second compound 0.1 µM, first compound 0.000999 µM) of the same compound?
Its viability, T/C is 110%.

And the viability, T/C (second compound 0.1 µM, first compound 0.00316 µM)?
The viability, T/C was 112%.

And the viability, T/C (second compound 0.1 µM, first compound 0.00999 µM)?
Its viability, T/C is 93.9%.

What about the viability, T/C [3] of the same compound?
The viability, T/C was 115%.

And the viability, T/C (second compound 0.1 µM, first compound 0.0999 µM)?
Its viability, T/C is 61.9%.

And the viability, T/C [4]?
Its viability, T/C is 47%.

And the viability, T/C (second compound 0.316 µM, first compound 0.000999 µM)?
Its viability, T/C is 85%.

What about the viability, T/C (second compound 0.316 µM, first compound 0.00316 µM) of the same compound?
The viability, T/C was 85.3%.

What about the viability, T/C (second compound 0.316 µM, first compound 0.00999 µM) of the same compound?
Its viability, T/C is 63.3%.

And the viability, T/C [5]?
Its viability, T/C is 70.7%.

What about the viability, T/C (second compound 0.316 µM, first compound 0.0999 µM) of the same compound?
Its viability, T/C is 60.6%.

What about the viability, T/C [6] of the same compound?
Its viability, T/C is 42.4%.

What about the viability, T/C (second compound 1 µM, first compound 0.000999 µM) of the same compound?
Its viability, T/C is 23.9%.

What about the viability, T/C (second compound 1 µM, first compound 0.00316 µM) of the same compound?
The viability, T/C was 14.9%.

And the viability, T/C (second compound 1 µM, first compound 0.00999 µM)?
The viability, T/C was 17.4%.

And the viability, T/C [7]?
Its viability, T/C is 11.6%.

And the viability, T/C (second compound 1 µM, first compound 0.0999 µM)?
The viability, T/C was 10.3%.

And the viability, T/C [8]?
The viability, T/C was 14.4%.

And the viability, T/C (second compound 3.16 µM, first compound 0.000999 µM)?
The viability, T/C was 2.23%.

What about the viability, T/C (second compound 3.16 µM, first compound 0.00316 µM) of the same compound?
Its viability, T/C is 1.91%.

What about the viability, T/C (second compound 3.16 µM, first compound 0.00999 µM) of the same compound?
Its viability, T/C is 2.49%.

And the viability, T/C [9]?
The viability, T/C was 1.45%.

What about the viability, T/C (second compound 3.16 µM, first compound 0.0999 µM) of the same compound?
The viability, T/C was 2.03%.

And the viability, T/C [10]?
The viability, T/C was 1.84%.

What about the viability, T/C (second compound 10 µM, first compound 0.000999 µM) of the same compound?
Its viability, T/C is 0.21%.

What about the viability, T/C (second compound 10 µM, first compound 0.00316 µM) of the same compound?
Its viability, T/C is 1.05%.

What about the viability, T/C (second compound 10 µM, first compound 0.00999 µM) of the same compound?
Its viability, T/C is 0.53%.

What about the viability, T/C [11] of the same compound?
The viability, T/C was 0.24%.

What about the viability, T/C (second compound 10 µM, first compound 0.0999 µM) of the same compound?
Its viability, T/C is 0.6%.

What about the viability, T/C [12] of the same compound?
Its viability, T/C is 0.58%.
